Measured values reported in US20240208898A1, “ENAMINE N-OXIDES: SYNTHESIS AND APPLICATION TO HYPOXIA-RESPONSIVE PRODRUGS AND IMAGING AGENTS” (DANA-FARBER CANCER INSTITUTE, INC., priority 2021, published 2024).
“Also recorded” adds a separate entry of the source.

Experiments:
[1] = system: BxPC-3 xenografts; assay: Immunofluorescence tissue staining of tumor slices; format: in vivo, mice
Protocol: All animal experiments were performed according to procedures and protocols approved by the Dana-Farber Cancer Institute Institutional Animal Care and Use Committee. Bx-PC3 cells were grown to confluency in antibiotic-free RPMI supplemented with 10% FBS, trypsinized, and washed three times with ice cold PBS (50 mL). Cells were resuspended in PBS at a concentration of 1.0×10^7 cells per 100 μL. 8-week old, female, homozygous NU/J mice (Jackson Laboratory) were subcutaneously injected with 1.0×10^7 Bx-PC3 cells over the right hind flank under isoflurane anesthesia. Experiments were performed when tumors reached 1000 mm^3 in size.
Mice were intraperitoneally injected with a 200 μL bolus of 25.8 mM pimonidazole and enamine N-oxide probe in 0.9% saline. Two min prior to sacrifice, mice were intravenously injected with 15 mg/kg Hoechst 33342 in 100 μL of PBS. After 1 hour, mice were sacrificed by cervical dislocation under isoflurane anesthesia. Tumors were resected and fixed in 4% paraformaldehyde in PBS for 24 hours at 4° C. with shaking. Tumors were then stored in 70% ethanol/water and submitted to the Rodent Histopathology Core at the Dana-Farber/Harvard Cancer Center for paraffin sectioning and H&E staining on glass slides. Paraffin embedded slices on glass slides were first rehydrated by successively immersing in xylenes twice for 10 minutes, 100% ethanol twice for 10 minutes, 95% ethanol/water once for 5 minutes, 70% ethanol/water for 5 minutes, 50% ethanol/water for 5 minutes, water three times for 20 seconds, and ice cold PBS+0.3% Triton X-100 once for 10 minutes. For slices to be stained by HIF1α and CD31, slides were then incubated at 90° C. in 10 mM citrate, pH 6.0 for 15 minutes. After 15 minutes, the solution was removed from heat and allowed to cool to room temperature. […] Slices were then imaged using a widefield fluorescence inverted microscope (Nikon Ti Eclipse) at the Dana-Farber Confocal and Light Microscopy Core according to the settings listed in the “General biological instrumentation” section.

[2] = system: BxPC-3 xenograft mouse model; assay: Near infrared imaging in live mice; format: in vivo; details: intraperitoneal 20 mg/kg
Protocol: All animal experiments were performed according to procedures and protocols approved by the Dana-Farber Cancer Institute Institutional Animal Care and Use Committee. Bx-PC3 cells were grown to confluency in antibiotic-free RPMI supplemented with 10% FBS, trypsinized, and washed three times with ice cold PBS (50 mL). Cells were resuspended in PBS at a concentration of 1.0×10^7 cells per 100 μL. 8-week old, female, homozygous NU/J mice (Jackson Laboratory) were subcutaneously injected with 1.0×10^7 Bx-PC3 cells over the right hind flank under isoflurane anesthesia. Experiments were performed when tumors reached 1000 mm^3 in size. Mice were intraperitoneally injected with a solution of Si700-enamine N-oxide probe 42 (20 mg/kg, 7.93 mM in 0.9% saline). Under isoflurane anesthesia, mice were then imaged with a Xenogen IVIS 100 fluorescence imager using an excitation of 675 nm and emission of 720 nm at various time points (0 hours (before treatment), 6 hours, 24 hours and 30 hours (after treatment)). Mice were then intraperitoneally injected with a solution of Si700-enamine N-oxide probe 42 (20 mg/kg, 7.93 mM in 0.9% saline) 30 hours post injection. After 16 hours, mice were intraperitoneally injected with a bolus of pimonidazole solution (200 μL, 25.8 mM pimonidazole in 0.9% saline). […]

| SMILES | co-localization with pimonidazole in tumor tissue slices ([1]; tumor of mouse imaged by NIR probe, CuAAC fluorescent labeling) | near-infrared fluorescence imaging: accumulation in the tumor [2] | localization in tumor tissue slices vs CD31 endothelial cell marker ([1]; intraperitoneal, CD31, DAPI) | localization in tumor tissue slices vs hypoxia markers ([1]; intraperitoneal, markers GLUT1, HIF1α, CAIX, pimonidazole) |
| --- | --- | --- | --- | --- |
| C#CCN(CCCCCC(F)/C=C/[N+]([O-])(CC)CC)C(=O)c1ccc(C2=c3cc4c(cc3[Si](C)(C)c3cc5c(cc32)CCN5C)=[N+](C)CC4)c(C)c1 (stereo not shown) [probe 42, Si700-enamine N-oxide] | robust co-localization | preferential accumulation of enamine N-oxide probe 42 in the tumor | – | – |
| C#CCCCCC(F)/C=C/[N+]([O-])(CC)CC (stereo not shown) [probe 39, (E)-N,N-diethyl-3-fluoronon-1-en-8-yn-1-amine oxide] | – | – | vasculature is primarily localized in regions distal to regions that are labeled well by enamine N-oxide 39 staining | strong correlation; also recorded: co-localized with the GLUT1 and pimonidazole hypoxia markers |
